Holding throughout (experiment): Post-emergence efficacy, glasshouse, evaluated after 13 days
Holding throughout (format): in vivo

In experiment [1] the test system is Amaranthus palmeri (AMAPA). The note with it: Amaranthus palmeri, 312 h, read-out: Control of weed species AMAPA (100=total damage to plant; 0=no damage to plant). The protocol: (§1) Seeds of a variety of test species were sown in standard soil in pots. After cultivation for 14 days (post-emergence) under controlled conditions in a glasshouse (at 24/16° C., day/night; 14 hours light; 65% humidity), the plants were sprayed with an aqueous spray solution derived from the dissolution of the technical active ingredient formula (I) in a small amount of acetone and a special solvent and emulsifier mixture referred to as IF50 (11.12% Emulsogen EL360 TM+44.44% N-methylpyrrolidone+44.44% Dowanol DPM glycol ether), to create a 50 g/l solution which was then diluted to required concentration using 0.25% or 1% Empicol ESC70 (Sodium lauryl ether sulphate)+1% ammonium sulphate as diluent.
(§2) The test plants were then grown in a glasshouse under controlled conditions (at 24/16° C., day/night; 14 hours light; 65% humidity) and watered twice daily. After 13 days the test was evaluated (100=total damage to plant; 0=no damage to plant).
(§3) Ipomoea hederacea (IPOHE), Euphorbia heterophylla (EPHHL), Chenopodium album (CHEAL), Amaranthus palmeri (AMAPA), Lolium perenne (LOLPE), Digitaria sanguinalis (DIGSA), Eleusine indica (ELEIN), Echinochloa crus-galli (ECHCG), Setaria faberi (SETFA)

The subject of experiment [2] is Echinochloa crus-galli (ECHCG). As to conditions: Echinochloa crus-galli, 312 h, read-out: Control of weed species ECHCG (100=total damage to plant; 0=no damage to plant). The protocol: as §1, §2, §3
For another experiment, the system named is Lolium perenne (LOLPE). The note with it: Lolium perenne, 312 h, read-out: Control of weed species LOLPE (100=total damage to plant; 0=no damage to plant). The protocol:
as §1, §2, §3

For experiment [3], the system named is Chenopodium album (CHEAL). As to conditions: Chenopodium album, 312 h, read-out: Control of weed species CHEAL (100=total damage to plant; 0=no damage to plant). The method, then:
as §1, §2, §3

Experiment [4] deals with Digitaria sanguinalis (DIGSA). The note with it: Digitaria sanguinalis, 312 h, read-out: Control of weed species DIGSA (100=total damage to plant; 0=no damage to plant). The method, then: as §1, §2, §3
The next experiment relates to Setaria faberi (SETFA). As to conditions: Setaria faberi, 312 h, read-out: Control of weed species SETFA (100=total damage to plant; 0=no damage to plant). The method, then:
as §1, §2, §3

Experiment [5] relates to Ipomoea hederacea (IPOHE). The note with it: Ipomoea hederacea, 312 h, read-out: Control of weed species IPOHE (100=total damage to plant; 0=no damage to plant). The method, then:
as §1, §2, §3

The subject of experiment [6] is Euphorbia heterophylla (EPHHL). The note with it: Euphorbia heterophylla, 312 h, read-out: Control of weed species EPHHL (100=total damage to plant; 0=no damage to plant). The protocol: as §1, §2, §3
The next experiment relates to Eleusine indica (ELEIN). The note with it: Eleusine indica, 312 h, read-out: Control of weed species ELEIN (100=total damage to plant; 0=no damage to plant). The protocol: as §1, §2, §3
[7] abbreviates: post-emergence application, 500 g/Ha, evaluated after 13 days.

Where a name gives a salt, the structure may show the parent alone. Read-outs that look alike come from different tables or passages of the source.

For the compound `CNC(=O)c1cc[n+](CCS(=O)(=O)[O-])nc1` [Compound A1, 2-[4-(methylcarbamoyl)pyridazin-1-ium-1-yl]ethanesulfonate], the pest or weed control at 500 g/ha in experiment [1] (setting [7]) amounted to 100%; in experiment [2] (setting [7]), 60%; in the experiment with Lolium perenne (LOLPE) (setting [7]), 80%; in experiment [3] (setting [7]), 70%; in experiment [4] (setting [7]), 90%; with Setaria faberi (SETFA) (setting [7]), 80%. Further, the pest or weed control at 500 g/ha in experiment [5] (setting [7]) was 60%; in experiment [6] (setting [7]), 70%; in the experiment with Eleusine indica (ELEIN) (setting [7]) it was 70%.
With `COC(=O)CC[n+]1ccc(C(=O)N(C)C)cn1` [Compound A2], the pest or weed control at 500 g/ha in [1] (setting [7]) was 10%; in experiment [2] (setting [7]), 30%; with Lolium perenne (LOLPE) (setting [7]), 20%; in experiment [3] (setting [7]) it was 10%; in experiment [4] (setting [7]), 50%; in the experiment with Setaria faberi (SETFA) (setting [7]) it was 30%. In addition, the pest or weed control at 500 g/ha in [5] (setting [7]) is 20%; in experiment [6] (setting [7]) it was 50%; in the experiment on Eleusine indica (ELEIN) (setting [7]) it was 10%.
Regarding `CN(C)C(=O)c1cc[n+](CCCS(=O)(=O)O)nc1` [Compound A3], the pest or weed control at 500 g/ha in [1] (setting [7]) amounted to 90%; in experiment [2] (setting [7]), 20%; in the experiment on Lolium perenne (LOLPE) (setting [7]) it was 10%; in [3] (setting [7]) it was 70%; in [4] (setting [7]), 20%; with Setaria faberi (SETFA) (setting [7]), 20%. The values for the pest or weed control at 500 g/ha (in experiment [5] (setting [7]); in experiment [6] (setting [7]); in the experiment with Eleusine indica (ELEIN) (setting [7])) were 20%, 90% and 10%, respectively.
In the case of `CNC(=O)c1cc[n+](CCC(=O)O)nc1` [Compound A4, 3-[4-(methylcarbamoyl)pyridazin-1-ium-1-yl]propanoic acid trifluoroacetate], the pest or weed control at 500 g/ha came to 90% in experiment [2] (post-emergence); 60% with Lolium perenne (LOLPE) (post-emergence); 80% in [3] (post-emergence); 100% in [4] (post-emergence); 90% in the experiment with Setaria faberi (SETFA) (post-emergence); 80% in experiment [5] (post-emergence). Also, the pest or weed control at 500 g/ha in experiment [6] (post-emergence) came out at 90%; in the experiment with Eleusine indica (ELEIN) (post-emergence), 100%.
`CC(C)NC(=O)c1cc[n+](CCS(=O)(=O)O)nc1` [Compound A5]: the pest or weed control at 500 g/ha in [1] (setting [7]) is 90%; in [2] (setting [7]), 60%; in the experiment with Lolium perenne (LOLPE) (setting [7]) it was 50%; in experiment [3] (setting [7]) it was 70%; in experiment [4] (setting [7]), 50%; with Setaria faberi (SETFA) (setting [7]) it was 40%. Further, the pest or weed control at 500 g/ha was determined as 60% in [5] (setting [7]), 30% in [6] (setting [7]) and 40% in the experiment with Eleusine indica (ELEIN) (setting [7]).
Turning to `CC(C)NC(=O)c1cc[n+](CCC(=O)[O-])nc1` [Compound A6], the pest or weed control at 500 g/ha in [1] (setting [7]) is 100%; in experiment [2] (setting [7]) it was 50%; in the experiment on Lolium perenne (LOLPE) (setting [7]), 90%; in experiment [3] (setting [7]), 100%; in experiment [4] (setting [7]) it was 90%; in the experiment with Setaria faberi (SETFA) (setting [7]), 90%. In addition, the pest or weed control at 500 g/ha turned out to be 60% in experiment [5] (setting [7]), 50% in experiment [6] (setting [7]) and 70% in the experiment with Eleusine indica (ELEIN) (setting [7]).
For `O=C(O)CC[n+]1ccc(C(=O)NC2CS(=O)(=O)C2)cn1` [Compound A67], the pest or weed control at 500 g/ha came out at 30% in [1] (setting [7]); 100% in [2] (setting [7]); 90% in the experiment on Lolium perenne (LOLPE) (setting [7]); 50% in experiment [3] (setting [7]); 100% in experiment [4] (setting [7]); 100% in the experiment on Setaria faberi (SETFA) (setting [7]). The pest or weed control at 500 g/ha in [5] (setting [7]) was determined as 30%; with Eleusine indica (ELEIN) (setting [7]) it was 90%.
As to `O=C(O)CC[n+]1ccc(C(=O)NC2C[S+]([O-])C2)cn1` (stereo not drawn) [Compound A68], the pest or weed control at 500 g/ha amounted to 100% in experiment [1] (setting [7]); 100% in experiment [2] (setting [7]); 90% in the experiment with Lolium perenne (LOLPE) (setting [7]); 90% in experiment [3] (setting [7]); 100% in [4] (setting [7]); 70% in the experiment on Setaria faberi (SETFA) (setting [7]). For the same compound, the pest or weed control at 500 g/ha in [5] (setting [7]) and in experiment [6] (setting [7]) was 100% each time.
For `C#CC(C)(C)NC(=O)c1cc[n+](CCC(=O)O)nc1` [Compound A77], the pest or weed control at 500 g/ha in experiment [1] (setting [7]) came out at 100%; in the experiment on Lolium perenne (LOLPE) (setting [7]), 80%; in [3] (setting [7]) it was 90%; with Setaria faberi (SETFA) (setting [7]), 100%; in [5] (setting [7]), 10%; in [6] (setting [7]) it was 100%.
Consider `C#CC(C)NC(=O)c1cc[n+](CCC(=O)O)nc1` (stereo not drawn) [Compound A78], for which the pest or weed control at 500 g/ha in experiment [1] (setting [7]) stood at 100%; in the experiment with Lolium perenne (LOLPE) (setting [7]), 80%; in experiment [3] (setting [7]) it was 100%; in the experiment with Setaria faberi (SETFA) (setting [7]) it was 100%; in experiment [5] (setting [7]), 90%; in [6] (setting [7]), 70%.
On to `CC(=O)NNC(=O)c1cc[n+](CCC(=O)O)nc1` [Compound A105], for which the pest or weed control at 500 g/ha in experiment [1] (setting [7]) came out at 50%; in experiment [2] (setting [7]) it was 40%; in the experiment on Lolium perenne (LOLPE) (setting [7]), 10%; in experiment [3] (setting [7]) it was 70%; in the experiment with Setaria faberi (SETFA) (setting [7]) it was 60%; in experiment [5] (setting [7]), 30%. Besides, the pest or weed control at 500 g/ha was determined as 60% in experiment [6] (setting [7]) and 30% in the experiment with Eleusine indica (ELEIN) (setting [7]).
As for `CCNC(=O)c1cc[n+](CCP(=O)(O)O)nc1` [Compound A119], the pest or weed control at 500 g/ha in experiment [1] (setting [7]) was 100%; in experiment [2] (setting [7]), 30%; with Lolium perenne (LOLPE) (setting [7]) it was 20%; in experiment [3] (setting [7]), 100%; in the experiment with Setaria faberi (SETFA) (setting [7]), 50%; in [5] (setting [7]), 50%. The pest or weed control at 500 g/ha came out at 80% in [6] (setting [7]) and 30% in the experiment on Eleusine indica (ELEIN) (setting [7]).
As to `CCNC(=O)c1cc[n+](C[C@H](N)C(=O)O)nc1` [Compound A121, [(1S)-1-carboxy-2-[4-(ethylcarbamoyl)pyridazin-1-ium-1-yl]ethyl]ammonium 2,2,2-trifluoroacetate], the pest or weed control at 500 g/ha in experiment [1] (post-emergence) amounted to 10%; in experiment [2] (post-emergence) it was 10%; in the experiment with Lolium perenne (LOLPE) (post-emergence) it was 10%; in [3] (post-emergence) it was 20%; with Setaria faberi (SETFA) (post-emergence) it was 10%; in experiment [5] (post-emergence), 10%. Moreover, the results for the pest or weed control at 500 g/ha (in experiment [6] (post-emergence); in the experiment with Eleusine indica (ELEIN) (post-emergence)) were 30% and 10%, respectively.
